Experimental data taken from patent US20240009150A1, “CAPSAICYNS IN THE TREATMENT OF LEAKY GUT” (AXICHEM AB [SE]/[SE], priority 2020, published 2024).

Tested on: Salmonella enterica subsp. enterica serovar Paratyphi C (ATCC® BAA1714™)
Experiment: Inhibition of biofilm formation with different capsaicyn compounds, crystal violet staining assay (Example 6)
Assay type: cell-based
Conditions: for Biofilm (OD 595 nm): 24 hr, 30° C.
Procedure: Biofilm formation was quantified with modifications using the method described by Stepanovic et al. (Journal of Microbiological Methods, 2000, 40(2), 175-19) with modifications. Using a 96-well microplate duplicate the test solutions were filled at the above selected doses. Cultures were grown for 18 hr in LB at 30° C. and adjusted to OD 0.1 at 600 nm. 20 μL of the culture were added into each well and the remainder of the volume to 200 μL per well was filled with LB. Unused external wells were filled with 200 μL of sterile water to prevent evaporation.
After 24 hr of incubation, supernatants were discarded, and the wells were washed three times with 200 μL of sterile phosphate buffered saline (PBS). Bacteria adhered to the wells were fixed with 200 μL of methanol for 15 min, the methanol was discarded, and the plates dried at 25° C.
Each well was stained with 200 μL of 0.3% (w/v) crystal violet solution for 5 min at 25° C. Crystal violet excess was pipetted out, and the wells were rinsed five times with sterile PBS. 200 μL of 33% (v/v) glacial acetic acid were added to the wells for 30 min to solubilise the dye adhered to the cell walls. Optical density (OD) was measured at 595 nm using a microplate spectrophotometer as a direct measure of biofilm formation. P. aeruginosa in 3% DMSO will be used as the negative control.
A stock solution of 500 μg of phenylcapsaicin, capsaicin, compound a, compound b, compound c, was prepared by dissolving 500 μg in 100 μl of ethanol and 900 μl of sterile water. The stock solutions were sequentially diluted with quadruple volumes of solvent (10% aqueous ethanol solution) to yield 125/31.25 (32)/7.81 (8)/1.95 (2) μg/ml test solutions.
ATCC® BAA1714™ was used to determine the biofilm inhibition activity. Inducer N-hexanoyl homoserine lactone (C6-HSL) was purchased from Sigma-Aldrich. ATCC® BAA1714™ was cultivated in Luria-Bertani (LB) medium (LB, 5 g yeast extract, 10 g tryptone, 5 g NaCl, 1 L water) at 37° C. overnight under aerobic conditions.
Crystal violet staining assay was performed as in Experiment 3, using ATCC® BAA1714™ in 3% DMSO as the control.

[1] = any dose tested (125, 32, 8, 2 μg/ml)

In the case of COc1cc(CNC(=O)CCCCC#CC(C)(C)C)ccc1OC(C)=O [compound c], the “Biofilm (OD 595 nm)” value (2 μg/mL) is reported as 8.0 OD 595 nm, the “Biofilm (OD 595 nm)” value (8 μg/mL) is reported as 8.6 OD 595 nm and the “Biofilm (OD 595 nm)” value (32 μg/mL) is reported as 8.5 OD 595 nm. The “Biofilm (OD 595 nm)” value (125 μg/mL) was 8.7 OD 595 nm and the “biofilm formation inhibition activity, in words” value [1] was “did not show biofilm formation inhibition activity”.

COc1cc(CNC(=O)CCCCC#CC(C)(C)C)ccc1O [compound b] was tested, and the “Biofilm (OD 595 nm)” value (2 μg/mL) was 8.1 OD 595 nm, the “Biofilm (OD 595 nm)” value (8 μg/mL) was 7.9 OD 595 nm and the “Biofilm (OD 595 nm)” value (32 μg/mL) was 8.2 OD 595 nm. The “Biofilm (OD 595 nm)” value (125 μg/mL) was 8.8 OD 595 nm and the “biofilm formation inhibition activity, in words” value [1] was “did not show biofilm formation inhibition activity”.

In the case of COc1cc(CNC(=O)CCCCC#CC2CCCCC2)ccc1O [compound a], the “Biofilm (OD 595 nm)” value (2 μg/mL) is reported as 6.5 OD 595 nm, the “biofilm formation inhibition activity relative to the activity of phenylcapsaicin” value (2 μg/ml dose) is reported as about 33% and the “biofilm formation inhibition activity, in words” value (2 μg/ml dose) is reported as “modest biofilm formation inhibition activity”. The “Biofilm (OD 595 nm)” value (8 μg/mL) was 6.8 OD 595 nm, the “Biofilm (OD 595 nm)” value (32 μg/mL) was 7.1 OD 595 nm and the “Biofilm (OD 595 nm)” value (125 μg/mL) was 8.2 OD 595 nm.
